Data as given in patent US20250122225A1, “MASP-2 INHIBITORS AND METHODS OF USE” (Omeros Corporation, priority 2023, published 2025).
Counter-ions that a name gives are not always drawn.

Legend:
[1] = target: T1, MASP-2 (CCP1-CCP2-SP) (Homo sapiens, UniProt O00187); experiment: Enzymatic assay for MASP-2 inhibitory activity (fluorogenic substrate); type: biochemical
T1 construct: 15 μL of Enzyme MASP-2 (CCP1-CCP2-SP) in Assay Buffer
Method: The MASP-2 assay utilizes a fluorogenic substrate, based on the cleavage site for its natural substrate C2. The assay was run at room temperature in an assay buffer containing 20 mM HEPES, pH 7.4, 140 mM NaCl and 0.1% Tween 20. Assay parameters were adjusted such that the assay was linear with respect to time, enzyme, and substrate concentrations. Under the optimized assays conditions, IC50 values were equivalent to Ki values, except in the few cases of “tight binding” inhibitors. Cases of “tight binding” or possible “slow binding” inhibitors were handled by the methods described in Copeland R. A. (2013) Evaluation of Enzyme Inhibitors in Drug Discovery. 2nd Ed., John Wiley and Sons, Inc., Chapters 5-7.
The MASP-2 assay protocol was carried out as follows. Test compounds were serially diluted in DMSO and then 100 nL of each dilution was transferred to the assay plate(s). 10 μL of Assay Buffer was added, followed by 15 μL of Enzyme MASP-2 (CCP1-CCP2-SP) in Assay Buffer. 15 μL of Substrate in Assay Buffer was then added and the mixture was mixed to start the reaction. After 20 min at room temperature, 15 μL of a stop solution (0.1 M acetic acid) was added, the sample was mixed, and the plates were read on a SpectraMax i3x Microplate Reader with the data exported as an Excel file. Each assay plate included a “no inhibitor” (DMSO only) control, a “no enzyme” control, and a reference inhibitor control. % Activity values=100*(average test comp. fluorescence−average “no enzyme” fluorescence)/(average “DMSO only” fluorescence−average “no enzyme” fluorescence). IC50 and Ki replicate values were very reproducible, with values well within ±2-fold.

[2] = target: T2, human α-thrombin (Homo sapiens, UniProt P00734); experiment: Enzymatic assay for thrombin (fluorogenic peptide substrate Boc-VPR-AMC); type: biochemical
T2 construct: enzyme (human α-thrombin (BioPharm® Lab.)) in assay buffer; purchased BioPharm® Lab
Method: The thrombin assay utilizes a fluorogenic peptide substrate (Boc-VPR-AMC (R&D Systems) and was run at room temperature in an assay buffer containing 20 mM Hepes, pH 7.4, 140 mM NaCl and 0.1% Tween 20. Assay parameters were adjusted such that the assay was linear with respect to time, enzyme, and substrate concentrations. Under these optimized assays conditions, IC50 values were equivalent to Ki values, except in a few cases of “tight binding” inhibitors. Cases of “tight binding” or possible “slow binding” inhibitors were handled by the methods described in Copeland R. A. (2013) Evaluation of Enzyme Inhibitors in Drug Discovery. 2nd Ed. John Wiley and Sons, Inc., Chapters 5-7.
The thrombin assay protocol was carried out as follows. Test compounds were serially diluted in DMSO and then 100 nL of each dilution was transferred to the assay plate(s). 10 μL of Assay Buffer was added, followed by 15 μL of enzyme (human α-thrombin (BioPharm® Lab.)) in assay buffer. 15 μL of substrate in assay buffer was then added and the sample mixed to start the reaction. After 20 min at room temperature, 15 μL of a stop solution (0.1 M acetic acid) was added, the sample was mixed, and the plates were read on a SpectraMax® i3x Microplate Reader with the data exported as Excel files. Each assay plate included a “no inhibitor” (DMSO only) control, a “no enzyme” control, and a reference inhibitor control. % Activity values=100*(ave. test comp. fluorescence−ave. “no enz” fluorescence)/(ave. “DMSO only” fluorescence−ave. “no enz” fluorescence). IC50 and Ki values were very reproducible, with values falling well within ±2-fold.

T1 sequence (O00187 445-686 limits assumed): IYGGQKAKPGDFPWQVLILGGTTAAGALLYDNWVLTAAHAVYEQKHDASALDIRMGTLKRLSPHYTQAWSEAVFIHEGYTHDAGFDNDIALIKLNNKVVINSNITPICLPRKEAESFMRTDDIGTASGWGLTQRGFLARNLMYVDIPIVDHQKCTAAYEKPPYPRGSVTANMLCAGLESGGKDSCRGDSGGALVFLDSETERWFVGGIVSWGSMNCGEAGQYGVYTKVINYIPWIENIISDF
T1 sequence (O00187 287-444 partner limits assumed): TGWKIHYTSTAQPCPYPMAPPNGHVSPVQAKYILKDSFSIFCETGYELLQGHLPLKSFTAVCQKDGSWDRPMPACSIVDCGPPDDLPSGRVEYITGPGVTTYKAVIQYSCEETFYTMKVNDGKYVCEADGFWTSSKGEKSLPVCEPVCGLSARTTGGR

## CC[C@H]1C[C@@H](C(=O)NCc2ccc(N)nc2)n2c1cnc(NCc1cc(C)cc(C)c1)c2=O [Compound 157, (6S,8S)-N-((6-aminopyridin-3-yl)methyl)-3-((3,5-dimethylbenzyl)amino)-8-ethyl-4-oxo-4,6,7,8-tetrahydropyrrolo[1,2-a]pyrazine-6-carboxamide]
[1]
  Ki: < 500 nM
[2]
  Ki: < 500 nM

## Cc1ccc(C)c(CNc2ncc3n(c2=O)[C@H](C(=O)NCc2ccc(N)nc2C)CC3)c1 [Compound 55, (S)-N-((6-amino-2-methylpyridin-3-yl)methyl)-3-((2,5-dimethylbenzyl)amino)-4-oxo-4,6,7,8-tetrahydropyrrolo[1,2-a]pyrazine-6-carboxamide]
[1]
  Ki: < 500 nM
[2]
  Ki: < 500 nM

## O=C(NCc1cc2cnccc2[nH]1)[C@@H]1CCc2cnc(NCc3ccccc3)c(=O)n21 [Compound 102, (S)—N-((1H-pyrrolo[3,2-c]pyridin-2-yl)methyl)-3-(benzylamino)-4-oxo-4,6,7,8-tetrahydropyrrolo[1,2-a]pyrazine-6-carboxamide]
[1]
  Ki: < 500 nM
[2]
  Ki: 500 to 2500 nM

## Cc1cc(F)cc(CNc2nc(-c3ccnn3C)c3n(c2=O)[C@H](C(=O)NCc2ccc(N)nc2C)CC3)c1 [Compound 175, (S)-N-((6-amino-2-methylpyridin-3-yl)methyl)-3-((3-fluoro-5-methylbenzyl)amino)-1-(1-methyl-1H-pyrazol-5-yl)-4-oxo-4,6,7,8-tetrahydropyrrolo[1,2-a]pyrazine-6-carboxamide trifluoroacetate]
[1]
  Ki: < 500 nM
[2]
  Ki: 500 to 2500 nM

## O=C(NCc1cc2cnccc2[nH]1)[C@@H]1CC2(CC2)c2cnc(NCc3ccccc3)c(=O)n21 [Compound 125, (S)-N-((1H-pyrrolo[3,2-c]pyridin-2-yl)methyl)-3′-(benzylamino)-4′-oxo-6′,7′-dihydro-4′H-spiro[cyclopropane-1,8′-pyrrolo[1,2-a]pyrazine]-6′-carboxamide]
[1]
  Ki: < 500 nM
[2]
  Ki: 2500 to 10000 nM

## Cc1ccc(F)c(CNc2ncc3n(c2=O)[C@H](C(=O)NCc2cc4cnc(C)cc4[nH]2)CC3)c1 [Compound 80, (S)-3-((2-fluoro-5-methylbenzyl)amino)-N-((6-methyl-1H-pyrrolo[3,2-c]pyridin-2-yl)methyl)-4-oxo-4,6,7,8-tetrahydropyrrolo[1,2-a]pyrazine-6-carboxamide]
[1]
  Ki: < 500 nM
[2]
  Ki: 10000 to 25000 nM

## Cc1cc(C)cc(CNc2ncc3n(c2=O)[C@H](C(=O)N[C@@H]2CCc4nc(N)ccc42)CC3)c1 [Compound 186, (S)-N-((R)-2-amino-6,7-dihydro-5H-cyclopenta[b]pyridin-5-yl)-3-((3,5-dimethylbenzyl)amino)-4-oxo-4,6,7,8-tetrahydropyrrolo[1,2-a]pyrazine-6-carboxamide]
[1]
  Ki: < 500 nM
[2]
  Ki: < 500 nM

## COc1cc(C)cc(CNc2ncc3n(c2=O)[C@H](C(=O)NCc2cc4cnc(C)cc4[nH]2)CC3)c1 [Compound 51, (S)-3-((3-methoxy-5-methylbenzyl)amino)-N-((6-methyl-1H-pyrrolo[3,2-c]pyridin-2-yl)methyl)-4-oxo-4,6,7,8-tetrahydropyrrolo[1,2-a]pyrazine-6-carboxamide]
[1]
  Ki: < 500 nM
[2]
  Ki: 2500 to 10000 nM

## Cc1cccc(CNc2ncc3n(c2=O)[C@H](C(=O)NCc2cc4cnccc4[nH]2)CC3)c1C [Compound 59, (S)-N-((1H-pyrrolo[3,2-c]pyridin-2-yl)methyl)-3-((2,3-dimethylbenzyl)amino)-4-oxo-4,6,7,8-tetrahydropyrrolo[1,2-a]pyrazine-6-carboxamide]
[1]
  Ki: < 500 nM
[2]
  Ki: 500 to 2500 nM

## Cc1cc(F)cc(CNc2nc(-c3cnn(C(F)F)c3)c3n(c2=O)[C@H](C(=O)NCc2cc4cnccc4[nH]2)CC3)c1 [Compound 215, (S)-N-((1H-pyrrolo[3,2-c]pyridin-2-yl)methyl)-1-(1-(difluoromethyl)-1H-pyrazol-4-yl)-3-((3-fluoro-5-methylbenzyl)amino)-4-oxo-4,6,7,8-tetrahydropyrrolo[1,2-a]pyrazine-6-carboxamide trifluoroacetate]
[1]
  Ki: < 500 nM
[2]
  Ki: > 25000 nM

## Cc1cc(C)cc(CNc2ncc3n(c2=O)[C@H](C(=O)NCc2cc4cnccc4[nH]2)CC3)c1 [Compound 97, (S)—N-((1H-pyrrolo[3,2-c]pyridin-2-yl)methyl)-3-((3,5-dimethylbenzyl)amino)-4-oxo-4,6,7,8-tetrahydropyrrolo[1,2-a]pyrazine-6-carboxamide trifluoroacetate]
[1]
  Ki: < 500 nM
[2]
  Ki: 500 to 2500 nM

## O=C(NCc1cc2cnccc2[nH]1)[C@@H]1CCc2cnc(NCc3cc(F)cc(F)c3)c(=O)n21 [Compound 54, (S)-N-((1H-pyrrolo[3,2-c]pyridin-2-yl)methyl)-3-((3,5-difluorobenzyl)amino)-4-oxo-4,6,7,8-tetrahydropyrrolo[1,2-a]pyrazine-6-carboxamide]
[1]
  Ki: < 500 nM
[2]
  Ki: 500 to 2500 nM

## O=C(NCc1cc2cnccc2[nH]1)[C@@H]1CCc2c(Cl)nc(NCC3CCc4ccccc4C3)c(=O)n21 (stereo partly drawn) [Compound 145, (6S)-N-((1H-pyrrolo[3,2-c]pyridin-2-yl)methyl)-1-chloro-4-oxo-3-(((1,2,3,4-tetrahydronaphthalen-2-yl)methyl)amino)-4,6,7,8-tetrahydropyrrolo[1,2-a]pyrazine-6-carboxamide]
[1]
  Ki: < 500 nM
[2]
  Ki: > 25000 nM

## Cc1cc(F)cc(CNc2ncc3n(c2=O)[C@H](C(=O)NCc2cnc(N)c(Cl)c2)CC3)c1 [Compound 192, (S)-N-((6-amino-5-chloropyridin-3-yl)methyl)-3-((3-fluoro-5-methylbenzyl)amino)-4-oxo-4,6,7,8-tetrahydropyrrolo[1,2-a]pyrazine-6-carboxamide trifluoroacetate]
[1]
  Ki: < 500 nM
[2]
  Ki: 500 to 2500 nM

## Cc1nc(N)ccc1CNC(=O)[C@@H]1CCc2cnc(NCc3cn4c(n3)CCCC4)c(=O)n21 [Compound 168, (S)-N-((6-amino-2-methylpyridin-3-yl)methyl)-4-oxo-3-(((5,6,7,8-tetrahydroimidazo[1,2-a]pyridin-2-yl)methyl)amino)-4,6,7,8-tetrahydropyrrolo[1,2-a]pyrazine-6-carboxamide trifluoroacetate]
[1]
  Ki: 500 to 2500 nM
[2]
  Ki: 2500 to 10000 nM

## CC[C@H]1C[C@@H](C(=O)NCc2cc3c(s2)CNC3)n2c1c(Cl)nc(NCc1ccccc1)c2=O [Compound 158, (6S,8S)-3-(benzylamino)-1-chloro-N-((5,6-dihydro-4H-thieno[2,3-c]pyrrol-2-yl)methyl)-8-ethyl-4-oxo-4,6,7,8-tetrahydropyrrolo[1,2-a]pyrazine-6-carboxamide hydrochloride]
[1]
  Ki: < 500 nM
[2]
  Ki: 2500 to 10000 nM

## CCc1cccc(CNc2ncc3n(c2=O)[C@H](C(=O)NCc2ccc(N)nc2C)CC3)c1 [Compound 46, (S)-N-((6-amino-2-methylpyridin-3-yl)methyl)-3-((3-ethylbenzyl)amino)-4-oxo-4,6,7,8-tetrahydropyrrolo[1,2-a]pyrazine-6-carboxamide]
[1]
  Ki: < 500 nM
[2]
  Ki: < 500 nM

## COC(CNc1nc(Cl)c2n(c1=O)[C@H](C(=O)NCc1cc3cnccc3[nH]1)CC2)c1ccccc1 (stereo partly shown) [Compound 244]
[1]
  Ki: < 500 nM
[2]
  Ki: 500 to 2500 nM

## Cc1cc(C)cc(CNc2ncc3n(c2=O)[C@H](C(=O)NCc2cc4c(s2)CNC4)CC3)c1 [Compound 96, (S)-N-((5,6-dihydro-4H-thieno[2,3-c]pyrrol-2-yl)methyl)-3-((3,5-dimethylbenzyl)amino)-4-oxo-4,6,7,8-tetrahydropyrrolo[1,2-a]pyrazine-6-carboxamide]
[1]
  Ki: < 500 nM
[2]
  Ki: < 500 nM

## Cc1nc(N)ccc1CNC(=O)[C@@H]1CCc2cnc(NCc3nn(C)c4ccccc34)c(=O)n21 [Compound 170, (S)-N-((6-amino-2-methylpyridin-3-yl)methyl)-3-(((1-methyl-1H-indazol-3-yl)methyl)amino)-4-oxo-4,6,7,8-tetrahydropyrrolo[1,2-a]pyrazine-6-carboxamide trifluoroacetate]
[1]
  Ki: < 500 nM
[2]
  Ki: < 500 nM
